# Legend:
# GLP1R [1] = target: T1, GLP1R (Homo sapiens, UniProt P43220); experiment: β-Arrestin-mediated GLP1R internalization assay (PathHunter U2OS cells); assay type: cell-based; parameters: host or cells: PathHunter engineered U2OS cells; settings: averaged Bmax where applicable, Percentage of Control GLP-1 (7-37), top 10 μM, 180 min
# Text: A similar assay can also be used to assess the extent of signal attenuation due to GLP-1R internalization (the Internalization Assay). In this assay, activated GLP1R Internalization cells were engineered to co-express an untagged GLP1R, Enzyme Acceptor (EA) tagged β-Arrestin, and a ProLink™ (PK) tag localized to the endosomes. Activation of the GLP1R induces β-Arrestin recruitment, which leads to internalization of the Receptor/Arrestin-EA complex in PK-tagged endosomes. This forces complementation of the two β-galactosidase enzyme fragments (EA and PK) to form a functional enzyme that hydrolyzes substrate to generate a chemiluminescent signal.
# Frozen cells were quickly thawed and 10 mL of cell plating medium (provided by the kit) was added to thawed cells. Cells were stored in a 37° C. incubator and kept for approximately 48 hours until ready for the assay.
# Reference and test compounds were dissolved in 100% DMSO. […] 5 μL of this solution was added to 20 μL cell medium in assay plate for a final top concentration of 10 μM. Plates were incubated at 37° C. for 180 min.
# Following 180 min incubation, detection reagents were made up by combining 1 part Galacton Star Substrate with 5 parts Emerald II™ Solution, and 19 parts of PathHunter Cell Assay Buffer, respectively. 12.5 μL detection reagent was added to each well. The plates were then incubated at room temperature for 60 min. Plates were then read on Envision for 0.1 sec/well.
# EC50 determinations were made from agonist dose-response curves analyzed with a curve fitting program using a 4-parameter logistic dose response equation.
# Target sequence in this assay (P43220 24-463): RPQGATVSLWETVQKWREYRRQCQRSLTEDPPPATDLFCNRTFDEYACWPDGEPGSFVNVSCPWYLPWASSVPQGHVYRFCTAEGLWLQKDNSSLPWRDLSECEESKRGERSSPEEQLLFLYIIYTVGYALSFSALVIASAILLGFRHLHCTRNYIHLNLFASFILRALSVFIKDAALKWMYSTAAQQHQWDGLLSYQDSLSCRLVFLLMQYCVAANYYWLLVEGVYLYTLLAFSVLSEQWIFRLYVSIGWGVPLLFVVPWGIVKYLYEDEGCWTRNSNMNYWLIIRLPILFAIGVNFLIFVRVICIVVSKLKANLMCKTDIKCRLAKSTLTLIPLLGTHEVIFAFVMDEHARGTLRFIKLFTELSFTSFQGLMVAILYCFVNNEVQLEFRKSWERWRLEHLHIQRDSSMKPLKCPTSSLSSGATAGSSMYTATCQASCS
# Target sequence in this assay (P32121 whole entry partner, the tested form may be a part): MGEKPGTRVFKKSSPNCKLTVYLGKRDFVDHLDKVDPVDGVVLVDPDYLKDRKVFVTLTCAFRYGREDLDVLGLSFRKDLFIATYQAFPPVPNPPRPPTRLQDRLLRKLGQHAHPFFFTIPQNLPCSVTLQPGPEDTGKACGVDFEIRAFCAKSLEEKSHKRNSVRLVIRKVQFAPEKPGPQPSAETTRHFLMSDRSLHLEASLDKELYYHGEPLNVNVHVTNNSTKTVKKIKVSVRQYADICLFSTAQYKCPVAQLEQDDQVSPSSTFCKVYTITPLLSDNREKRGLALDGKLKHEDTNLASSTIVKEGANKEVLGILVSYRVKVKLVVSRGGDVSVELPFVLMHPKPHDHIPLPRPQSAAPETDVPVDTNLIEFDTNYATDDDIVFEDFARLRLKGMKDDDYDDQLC
# GLP1R [2] = target: T1, GLP1R; experiment: GLP1R cAMP assay (HTRF), HEK293/GLP-1R/CRE/Luc, Clone 4
# Target sequence in this assay (P43220 24-463): as the sequence (P43220 24-463) above
# GLP1R [3] = target: T1, GLP1R; parameters: Emax: dose or concentration left out as unconfirmed; settings: for Emax: CHO-K1, […], read-out: β-arrestin recruitment Bmax (%)
# Target sequence in this assay (P43220 24-463): as above
# Target sequence in this assay (P32121 whole entry partner, the tested form may be a part): as the sequence (P32121 whole entry partner, the tested form may be a part) above
# Protocol: Frozen cells were quickly thawed and 10 mL of cell plating medium (provided by the kit) was added to thawed cells. Cells were stored in a 37° C. incubator under 5% CO2 and kept for approximately 48 hours until ready to run the assay.
# Reference and test compounds were dissolved in 100% DMSO. […] 5 μL of this solution was added to 20 μL cell medium in assay plate for a final top concentration of 10 μM. Plates were then incubated at 37° C. under 5% CO2 for 90 min.
# Following 90 min incubation, detection reagents were made up by combining 1 part Galacton Star Substrate with 5 parts Emerald II™ Solution, and 19 parts of PathHunter Cell Assay Buffer, respectively. 12.5 μl detection reagent was added to each well. The plates were then incubated at room temperature in dark for 60 min. Plates were then read on Envision for 0.1 sec/well.
# Cells were plated at a density of 1000 or 2000 cells/20 μL/well. Frozen cells were quickly thawed and added to 10 mL of cell plating medium. Cells were stored in a 37 degree incubator under 5% CO2 and left for approximately 48 hours until ready to run the assay
# Prepare 10× concentration of an agonist in serum free DMEM, and add all solutions into the compound plate. 2.5 μL of this solution was added to 20 μL cell medium in assay plate for a final top concentration of 10 μM. Plates were incubated at 37° C. under 5% CO2 for 30 min. An additional 2.5 μL of Buffer was added to the entire plate for agonist mode and incubated at 37° C. for another 90 min.
# Following 90 min incubation, detection reagents were made up as described. 12.5 μL was added to all wells. The plates were then incubated at room temperature in dark for 60 min. Plates were then read on Envision for 0.1 sec/well.
# Data analysis: GraphPad Prism 6 was used for establishment of progression curve. EC50s or IC50s were determined by 4-parameter logistic dose response equation.
Structure (SMILES),β-arrestin internalization Bmax (POC) (GLP1R [1]),EC50 (GLP1R [2]),Emax (GLP1R [3]),"β-arrestin recruitment Bmax (%) (GLP1R [3]; partial maximum relative effect at the highest concentration tested (top 10 μM), relative to Bmax of GLP-1 (7-37), PathHunter CHO-K1 GLP1R β-Arrestin cells)"
"O=C(O)c1ccc2nc(Cc3ccc(-c4cc(OCc5ccc(Cl)cc5F)ccc4F)c(F)c3)n(C[C@@H]3CCO3)c2c1 [Compound 79, (S)-2-((5′-((4-chloro-2-fluorobenzyl)oxy)-2,2′-difluoro-[1,1′-biphenyl]-4-yl)methyl)-1-(oxetan-2-ylmethyl)-1H-benzo[d]imidazole-6-carboxylic acid]",9.25 POC,15 to 150 nM,19.7%,
"O=C(O)c1ccc2nc(Cc3ccc(-c4ccnc(OCc5ccc(Cl)cc5F)n4)c(F)c3)n(C[C@@H]3CCO3)c2c1 [Compound 80, (S)-2-(4-(2-((4-chloro-2-fluorobenzyl)oxy)pyrimidin-4-yl)-3-fluorobenzyl)-1-(oxetan-2-ylmethyl)-1H-benzo[d]imidazole-6-carboxylic acid]",21.2 POC,< 15 nM,31.6%,
"O=C(O)c1ccc2nc(Cc3ccc(-c4ncc(F)c(OCc5ccc(Cl)cc5F)n4)c(F)c3)n(C[C@@H]3CCO3)c2c1 [Compound 81, (S)-2-(4-(4-(4-chloro-2-fluorobenzyloxy)-5-fluoropyrimidin-2-yl)-3-fluorobenzyl)-1-(oxetan-2-ylmethyl)-1H-benzo[d]imidazole-6-carboxylic acid]",30.6 POC,< 15 nM,37.2%,
"O=C(O)c1ccc2nc(Cc3ccc(-c4nc(OCc5ccc(Cl)cc5F)ncc4F)c(F)c3)n(C[C@@H]3CCO3)c2c1 [Compound 82, (S)-2-(4-(2-(4-chloro-2-fluorobenzyloxy)-5-fluoropyrimidin-4-yl)-3-fluorobenzyl)-1-(oxetan-2-ylmethyl)-1H-benzo[d]imidazole-6-carboxylic acid]",13.8 POC,< 15 nM,20.1%,
"O=C(O)c1ccc2nc(Cc3ccc(-c4ccc(F)c(OCc5ccc(Cl)cc5F)n4)c(F)c3)n(C[C@@H]3CCO3)c2c1 [Compound 83, (S)-2-(4-(6-((4-chloro-2-fluorobenzyl)oxy)-5-fluoropyridin-2-yl)-3-fluorobenzyl)-1-(oxetan-2-ylmethyl)-1H-benzo[d]imidazole-6-carboxylic acid]",27.8 POC,< 15 nM,44.6%,
O=C(O)c1ccc2nc(Cc3ccc(-c4ccc(F)c(OCc5ccc(Cl)cc5F)c4)cc3F)n(C[C@@H]3CCO3)c2c1 [Compound 85],29.5 POC,< 15 nM,37%,
"O=C(O)c1ccc2nc(Cc3ccc(-c4nccc(OCc5ccc(Cl)cc5F)n4)cc3F)n(C[C@@H]3CCO3)c2c1 [Compound 86, (S)-2-(4-(4-((4-chloro-2-fluorobenzyl)oxy)pyrimidin-2-yl)-2-fluorobenzyl)-1-(oxetan-2-ylmethyl)-1H-benzo[d]imidazole-6-carboxylic acid]",41.8 POC,< 15 nM,33.5%,
"O=C(O)c1ccc2nc(Cc3ccc(-c4cccc(OCc5ccc(Cl)cc5F)n4)nc3)n(C[C@@H]3CCO3)c2c1 [Compound 100, (S)-2-((6′-(4-chloro-2-fluorobenzyloxy)-2,2′-bipyridin-5-yl)methyl)-1-(oxetan-2-ylmethyl)-1H-benzo[d]imidazole-6-carboxylic acid]",0.881 POC,> 1000 nM,0.971%,

# Now from value to compound:
β-arrestin internalization Bmax (POC) (GLP1R [1]),EC50 (GLP1R [2]),Emax (GLP1R [3]),"β-arrestin recruitment Bmax (%) (GLP1R [3]; partial maximum relative effect at the highest concentration tested (top 10 μM), relative to Bmax of GLP-1 (7-37), PathHunter CHO-K1 GLP1R β-Arrestin cells)",Structure (SMILES)
23.9 POC,< 15 nM,33.1%,,"O=C(O)c1ccc2nc(Cc3ccc(-c4ccnc(OCc5ccc(Cl)cc5F)n4)cc3F)n(C[C@@H]3CCO3)c2c1 [Compound 87, (S)-2-(4-(2-((4-chloro-2-fluorobenzyl)oxy)pyrimidin-4-yl)-2-fluorobenzyl)-1-(oxetan-2-ylmethyl)-1H-benzo[d]imidazole-6-carboxylic acid]"
29.2 POC,< 15 nM,44.6%,,"O=C(O)c1ccc2nc(Cc3ccc(-c4ccc(F)c(OCc5ccc(Cl)cc5F)n4)cc3F)n(C[C@@H]3CCO3)c2c1 [Compound 88, (S)-2-(4-(6-(4-chloro-2-fluorobenzyloxy)-5-fluoropyridin-2-yl)-2-fluorobenzyl)-1-(oxetan-2-ylmethyl)-1H-benzo[d]imidazole-6-carboxylic acid]"
20.0 POC,< 15 nM,25.3%,,"O=C(O)c1ccc2nc(Cc3ccc(-c4cccc(OCc5ccc(Cl)cc5F)c4)cc3F)n(C[C@@H]3CCO3)c2c1 [Compound 89, (S)-2-((3′-((4-chloro-2-fluorobenzyl)oxy)-3-fluoro-[1,1′-biphenyl]-4-yl)methyl)-1-(oxetan-2-ylmethyl)-1H-benzo[d]imidazole-6-carboxylic acid]"
21.6 POC,< 15 nM,29.5 ± 3.21%,,"O=C(O)c1ccc2nc(Cc3ccc(-c4ncc(F)c(OCc5ccc(Cl)cc5F)n4)cc3F)n(C[C@@H]3CCO3)c2c1 [Compound 90, (S)-2-(4-(4-((4-chloro-2-fluorobenzyl)oxy)-5-fluoropyrimidin-2-yl)-2-fluorobenzyl)-1-(oxetan-2-ylmethyl)-1H-benzo[d]imidazole-6-carboxylic acid]"
21.6 POC,< 15 nM,35.8%,,"O=C(O)c1ccc2nc(Cc3ccc(-c4nc(OCc5ccc(Cl)cc5F)ncc4F)cc3F)n(C[C@@H]3CCO3)c2c1 [Compound 91, (S)-2-(4-(2-(4-chloro-2-fluorobenzyloxy)-5-fluoropyrimidin-4-yl)-2-fluorobenzyl)-1-(oxetan-2-ylmethyl)-1H-benzo[d]imidazole-6-carboxylic acid]"
27.3 ± 7.75 POC,< 15 nM,,33.3%,"O=C(O)c1ccc2nc(Cc3ccc(-c4cccc(OCc5ccc(Cl)cc5F)n4)cc3)n(C[C@@H]3CCO3)c2c1 [Compound 94, (S)-2-(4-(6-((4-chloro-2-fluorobenzyl)oxy)pyridin-2-yl)benzyl)-1-(oxetan-2-ylmethyl)-1H-benzo[d]imidazole-6-carboxylic acid]"
3.08 POC,> 1000 nM,1.05%,,"O=C(O)c1ccc2nc(Cc3ccc(-c4cccc(OCc5ccc(Cl)cc5F)n4)cn3)n(C[C@@H]3CCO3)c2c1 [Compound 101, (S)-2-((6-((4-chloro-2-fluorobenzyl)oxy)-[2,3′-bipyridin]-6′-yl)methyl)-1-(oxetan-2-ylmethyl)-1H-benzo[d]imidazole-6-carboxylicacid]"
25.4 ± 1.39 POC,< 15 nM,47.3 ± 4.55%,,"O=C(O)c1ccc2nc(Cc3ccc(-c4cccc(OCc5ccc(Cl)cc5F)n4)c(F)c3F)n(C[C@@H]3CCO3)c2c1 [Compound 262, (S)-2-(4-(6-(4-chloro-2-fluorobenzyloxy)pyridin-2-yl)-2,3-difluorobenzyl)-1-(oxetan-2-ylmethyl)-1H-benzo[d]imidazole-6-carboxylic acid]"
30.2 ± 6.53 POC,< 15 nM,41.7 ± 3.45%,,"O=C(O)c1ccc2nc(Cc3ccc(-c4ccc(F)c(OCc5ccc(F)cc5F)n4)c(F)c3)n(C[C@@H]3CCO3)c2n1 [Compound 267, (S)-2-(4-(6-(2,4-difluorobenzyloxy)-5-fluoropyridin-2-yl)-3-fluorobenzyl)-3-(oxetan-2-ylmethyl)-3H-imidazo[4,5-b]pyridine-5-carboxylic acid]"
23.0 POC,< 15 nM,39.3 ± 4.96%,,"O=C(O)c1ccc2nc(Cc3ccc(-c4ccc(F)c(OCc5ccc(F)cc5F)n4)cc3F)n(C[C@@H]3CCO3)c2n1 [Compound 277, (S)-2-(4-(6-(2,4-difluorobenzyloxy)-5-fluoropyridin-2-yl)-2-fluorobenzyl)-3-(oxetan-2-ylmethyl)-3H-imidazo[4,5-b]pyridine-5-carboxylic acid]"
36.5 POC,< 15 nM,48.5 ± 6.64%,,"O=C(O)c1ccc2nc(Cc3ccc(-c4cccc(OCc5ccc(Cl)cc5F)n4)cc3F)n(C[C@@H]3CCO3)c2n1 [Compound 281, 2-[[4-[6-[(4-chloro-2-fluoro-phenyl)methoxy]-2-pyridyl]-2-fluoro-phenyl]methyl]-3-[[(2S)-oxetan-2-yl]methyl]imidazo[4,5-b]pyridine-5-carboxylic acid]"
21.6 ± 3.52 POC,< 15 nM,39.9 ± 4.4%,,"O=C(O)c1ccc2nc(Cc3ccc(-c4cccc(OCc5ccc(F)cc5F)n4)c(F)c3)n(C[C@@H]3CCO3)c2n1 [Compound 290, (S)-2-(4-(6-((2,4-difluorobenzyl)oxy)pyridin-2-yl)-3-fluorobenzyl)-3-(oxetan-2-ylmethyl)-3H-imidazo[4,5-b]pyridine-5-carboxylic acid]"
